# Experimental data published in ChEMBL document CHEMBL2074201, “Cepharanthin, a multidrug resistant modifier, is a substrate for P-glycoprotein” (J Pharmacol Exp Ther, 1995).
# Tests used:
# [1] = target: T1, ATP-dependent translocase ABCB1 (Homo sapiens, UniProt P08183); assay: TP_TRANSPORTER: transepithelial transport (basal to apical) in MDR1-expressing LLC-PK1 cells; type: functional, cell-based; settings: pig
# [2] = target: T1, ATP-dependent translocase ABCB1; assay: TP_TRANSPORTER: inhibition of Daunorubicin transepithelial transport (basal to apical) (Daunorubicin: 0.1 uM) in MDR1-expressing LLC-PK1 cells; type: functional, cell-based
# T1 sequence (P08183 whole entry): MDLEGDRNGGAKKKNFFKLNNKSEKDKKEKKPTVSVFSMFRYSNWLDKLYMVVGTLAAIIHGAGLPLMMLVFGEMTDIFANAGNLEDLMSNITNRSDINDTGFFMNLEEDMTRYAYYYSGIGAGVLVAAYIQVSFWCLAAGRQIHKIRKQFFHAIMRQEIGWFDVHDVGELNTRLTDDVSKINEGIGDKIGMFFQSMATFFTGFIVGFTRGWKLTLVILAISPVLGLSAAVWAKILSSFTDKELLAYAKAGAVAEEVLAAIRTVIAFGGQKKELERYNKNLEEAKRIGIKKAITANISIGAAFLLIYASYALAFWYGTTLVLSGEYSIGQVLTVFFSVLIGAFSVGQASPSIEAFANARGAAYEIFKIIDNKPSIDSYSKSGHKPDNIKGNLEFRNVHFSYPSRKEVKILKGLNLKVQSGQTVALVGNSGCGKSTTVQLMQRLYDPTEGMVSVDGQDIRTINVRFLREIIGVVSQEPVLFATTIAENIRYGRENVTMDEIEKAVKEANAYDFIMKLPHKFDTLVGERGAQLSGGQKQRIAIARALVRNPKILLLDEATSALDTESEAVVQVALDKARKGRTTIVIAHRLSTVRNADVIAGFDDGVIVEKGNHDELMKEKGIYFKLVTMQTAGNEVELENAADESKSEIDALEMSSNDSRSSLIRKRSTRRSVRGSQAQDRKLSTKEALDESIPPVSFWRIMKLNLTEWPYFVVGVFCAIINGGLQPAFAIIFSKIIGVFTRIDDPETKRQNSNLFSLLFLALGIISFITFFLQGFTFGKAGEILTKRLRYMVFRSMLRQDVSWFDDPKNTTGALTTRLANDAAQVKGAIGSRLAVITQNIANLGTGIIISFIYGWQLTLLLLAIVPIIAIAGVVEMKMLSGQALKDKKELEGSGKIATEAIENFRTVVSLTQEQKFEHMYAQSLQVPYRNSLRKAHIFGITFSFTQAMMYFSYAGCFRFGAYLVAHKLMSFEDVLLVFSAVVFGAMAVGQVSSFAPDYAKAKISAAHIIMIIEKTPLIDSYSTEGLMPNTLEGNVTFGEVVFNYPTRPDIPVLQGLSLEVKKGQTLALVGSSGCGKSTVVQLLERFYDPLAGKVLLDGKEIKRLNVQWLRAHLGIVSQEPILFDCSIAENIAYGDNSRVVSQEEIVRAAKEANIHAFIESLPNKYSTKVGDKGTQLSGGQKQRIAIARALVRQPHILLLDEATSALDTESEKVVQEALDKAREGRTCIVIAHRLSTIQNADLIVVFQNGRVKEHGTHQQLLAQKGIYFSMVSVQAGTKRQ
smiles,measurement,setting,value
COc1ccc2cc1Oc1cccc(c1)C[C@H]1c3c(cc4c(c3Oc3cc5c(cc3OC)CCN(C)[C@@H]5C2)OCO4)CCN1C [CEPHARANTHIN],Activity,[1],substrate [+]
same,IC50,[2],2060 nM
